Patent publication US20050143336A1 (priority 2003, published 2005)
Entries after “also recorded” stand apart in the source; their conditions may differ. Read-outs that look alike come from different tables or passages of the source.

Experiments:
C3H mice [1] = assay type: in vivo; settings: for protection: alive on day 14
Method: In vivo treatment of immunocompetent animals by intravenous injection of DOTAP:Cholesterol-FUS1 complex. Female C3H mice were divided into 3 groups (n=5/group). […] Complexes were injected intravenously via tail vein in a total volume of 200 μl. Animals were monitored initially at 1, 2, 6, 24, 48 hr and later every day until day 14. Animals that appeared morbid or moribund were euthanized by CO2 inhalation and various organs (lung, liver, kidneys, spleen, heart) were collected in buffered formalin and submitted for histopathological examination. Organs were also collected from animals that were dead, and these were submitted for histopathological analyses.

AP-1 = AP-1 DNA binding activity, electrophoretic mobility shift assay in MRC-9 cells; assay type: cell-based, Human; settings: naproxen pretreatment before FUS1-nanoparticles
Method: Electrophoretic mobility shift assay (EMSA). MRC-9 cells were seeded in six well plates at 1.3×10^6 cells/well for EMSA. […] Cells were harvested at 2, 4 and 15 h after transfection and nuclear extracts prepared. To the nuclear extracts (10 μg), DNA binding reaction mixture containing [γ-^32P]-ATP radiolabeled AP-1 oligonucleotide and 0.5 μg poly (dI-dC) were added and incubated at 25° C. for 30 min in 5× gel shift binding buffer [20% glycerol, 5 mM MgCl2 2.5 mM EDTA, 2.5 mM DTT, 250 mM NaCl, 50 mM Tris-HCl (pH 7.5)]. The complexes were subsequently resolved on 5% nondenaturing polyacrylamide gels in 0.5×Tris-borate EDTA buffer for 1 h 30 min at 300 V. The bands were visualized by autoradiography.

PGE2 production = PGE2 production assay in cells transfected with FUS1-nanoparticles; assay type: cell-based, Human; settings: naproxen 0.5 mM prior to FUS1-nanoparticles
Method: PGE2 production assay. Cells were seeded in 6-well plates (1-3×10^6 cells/well) and incubated at 37° C. Twenty-four hours later, the culture medium was replaced and replenished with fresh medium supplemented with 0.2% serum. […] At 3.5 h after treatment cells were transfected with FUS1-nanoparticles (2.5 μg DNA). The amount of PGE2 secreted into the culture supernatant at various time (2 h, 4 h, and 15 h) points was determined using the PGE2 enzyme immunoassay (Cayman Chemicals, Ann Arbor, Mich.). Assay was performed according to manufacturer's protocol.

[2] = system: p38MAPK, pJNK, p44/42MAPK, pATF2, pc-JUN, COX-2 in lung tissues; test: Inflammation-associated signaling molecules in lung tissues after FUS1-nanoparticles (western blot); assay type: in vivo, C3H mice; settings: naproxen prior to FUS1-nanoparticles
[3] = system: serum TNF-α, IL-6, Il-1α and IFN-γ; test: Serum cytokine profile after FUS1-nanoparticle with or without naproxen (ELISA); assay type: in vivo, C3H mice; settings: naproxen 15 mg/kg orally pretreatment
Method: (§1) Cytokine profiles, Organ toxicity and Signalling molecules in C3H mice. To determine the cytokine profile, organ toxicity, signaling molecules responsible for inflammation, experiments were performed using immunocompetent female C3H mice. […] The amount of FUS1 plasmid injected was 100 μg. Serum and organ cytokine levels were determined by ELISA for murine TNF-α and murine Il-6. At indicated times after injection, blood was obtained via aspiration after right heart puncture. The blood was allowed to stand for 4 hours at 4° C. and then was centrifuged twice at 15,000 g for 10 minutes at 4° C. The supernatants (serum) were kept at −80° C. until used. Cytokine concentrations were quantified using specific ELISA kits (R&D systems) according to manufacturer's instructions. Organs were collected at 2, 4, and 15 h and were snap-frozen in liquid nitrogen and stored at […] until time of ELISA and Western blot analysis. At the time of ELISA, organs were slowly thawed on ice. The lung, liver and spleen was homogenized in 750 μl PBS containing a cocktail of protease inhibitors using a tissue homogenizer. The cytoplasmic fraction was isolated as the supernatant fraction following centrifugation at 15,000 g for 20 min at 4° C. The supernatant was used for the determination of TNF-α and IL-6 were quantitated by ELISA kits purchased from R&D Sytems and Biosource.fraction.

[4] = system: TNF-α, IL-6 in lungs, liver and spleen; test: Organ cytokine levels (lungs, liver, spleen) after FUS1-nanoparticle with or without naproxen (ELISA); assay type: in vivo, C3H mice; settings: naproxen 15 mg/kg orally pretreatment
Method: as §1

[5] = system: TNF-α, IL-6 and PGE2 production in RAW 264.7 cells; test: Inflammatory cytokines production assay in RAW 264.7 macrophage cells; assay type: cell-based, Mouse; settings: RAW 264.7, naproxen 0.5 mM before FUS1-nanoparticle
Method: The following day, tissue culture medium was replaced with fresh 0.2% medium and incubated overnight at 37° C. and 5% CO2. […] Assay was performed according to manufacturer's protocol.

[6] = system: p38MAPK, JNK, p44/42 MAPK, ATF2, cJun, STAT3, COX-2 in RAW 264.7 cells; test: Signaling molecules in RAW 264.7 macrophage cells transfected with FUS1-nanoparticle (western blot); assay type: cell-based, Mouse
Method: In vitro experiments. To determine the effect of nanoparticle-FUS1 complex on the activation of signaling molecules associated with inflammation, RAW macrophage cells were seeded in six-well plates (1×10^6 cells/well) and incubated overnight at 37° C. and 5% CO2. The following day, tissue culture medium was replaced with fresh 0.2% medium and incubated overnight at 37° C. and 5% CO2. […] Two-three hours after treatment, cells were transfected with FUS1-nanoparticle (2.5 μg DNA) in 0.2% serum medium. Cells were harvested at different time-points (2 h, 4 h, 15 h) after transfection, washed, and cell lysates prepared as previously described (Ramesh et al., 2001a). Untransfected cells treated with PBS served as control in these experiments. Cell lysates were subjected to western blotting analysis and probed with various antibodies as previously described (Ito et al., 2003). In all the experiments, β-actin was detected using anti-β-actin antibody (Sigma Chemicals, St. Louis, Mo.) as a measure of internal loading control.

lung tumor cells = settings: luc-nanoparticles in the presence of naproxen
mouse TNF-α = settings: naproxen 15 mg/Kg orally 3 h prior to FUS1-nanoparticles 100 μg DNA i.v.
Method: In vivo experiments. To determine the effect of intravenous administration of FUS1-nanoparticles on inflammation and the potential use of inhibitors, in vivo experiments were conducted in immunocompetent female C3H mice. Mice were divided into three groups (n=5/group). […] Group 3 received intravenous injection of FUS1-nanoparticles only. The amount of plasmid DNA injected was 100 μg. […] At 2 h, 4 h, 6 h and 15 h after treatment with FUS1-nanoparticles, animals were euthanized and blood and organs (lung, liver, spleen) collected. Blood samples were analyzed for mouse TNF-α by ELISA (R&D Systems, MI). Tissue samples were analyzed for expression of inflammation-associated signaling molecules by western blotting (Ito et al., 2003).

C3H mice [7] = system: C3H mice
[8] = system: luciferase expression in RAW 264.7 cells; settings: RAW 264.7, 0.5 mM naproxen pretreatment
Method: To determine the effect of inhibitors on transgene expression, cells were transfected with a marker gene, luciferase (luc), complexed with nanoparticle. All other experimental conditions were the same as described above. […] Luciferase expression was expressed as relative light units per mg of protein (RLU/mg). Assays were performed in triplicates. Experiments were performed two times and the results represented as the average of two separate experiments.

COc1ccc2cc([C@H](C)C(=O)O)ccc2c1 [Naproxen, naproxen]
protection (C3H mice [1]; naproxen 5 mg/kg orally 2 hour prior to complex (100 μg DNA) i.v.): 60%
protection (C3H mice [1]; naproxen 15 mg/kg orally 2 hour prior to complex (100 μg DNA) i.v.): 100%
Diagnosis (histopathology) (C3H mice [1]; naproxen before complex, 15 hr): almost completely prevented all the inflammatory features except moderate lymphoid atrophy spleen
AP-1 DNA binding activity (AP-1): inhibition of AP-1 activity
inhibition of PGE2 (PGE2 production): almost complete; also recorded: significantly inhibition in PGE2 levels
secreted PGE2 levels (PGE2 production; 2-15 h): 33 to 120 pg/mL
activation of signaling molecules in lung [2]: markedly suppressed
serum TNF-α, IL-6, Il-1α and IFN-γ levels induced by FUS1-nanoparticle [3]: significantly inhibited
TNF-α, IL-6 levels in lungs, liver and spleen [4]: significantly inhibited
production of TNF-α, IL-6 and PGE2 [5]: suppressed
p38MAPK, pJNK, pATF-2 and pcjun ([6]; RAW 264.7, 0.5 mM naproxen pretreatment, 2 and 4 h): significantly inhibited
phosphorylation of STAT 3 ([6]; RAW 264.7, 0.5 mM naproxen, 4 and 15 h): inhibited
expression of COX-2 ([6]; RAW 264.7, 0.5 mM naproxen, 4 h): inhibited
transgene expression (lung tumor cells): Enhanced transgene expression
TNF-α expression levels in blood at 2 h (mouse TNF-α): 411 pg/mL
percentage of survival (C3H mice [7]; naproxen 5 mg/kg orally 2 to 3 h before FUS1-nanoparticle (100 μg FUS1)): 50%
percentage of survival (C3H mice [7]; naproxen 15 mg/kg orally 2 to 3 h before FUS1-nanoparticle (100 μg FUS1)): 100%
transgene (luciferase) expression [8]: did not inhibit transgene (luciferase) expression but rather slightly enhanced the transgene expression over time
